Reference: the NIST ThermoML archive (doi:10.1016/j.jct.2019.03.035)
Numbers after ± are expanded uncertainties.

Key:
[1] = refractive index (other wavelength) (dimensionless); xn = mol fraction of the nth substance listed; conditions: 288.62 K; 100 kPa; Liquid; Wavelength=632.8 nm; minimum deviation angle technique; x2 = 0
[2] = refractive index (other wavelength) (dimensionless); conditions: 100 kPa, Liquid, Wavelength=632.8 nm, minimum deviation angle technique

| SMILES | refractive index [1] | refractive index ([2]; 285.47 K) | refractive index ([2]; 286.4 K) | refractive index ([2]; 287.49 K) | refractive index ([2]; 288.44 K) | refractive index ([2]; 288.62 K) | refractive index ([2]; 289.45 K) | refractive index ([2]; 290.7 K) | refractive index ([2]; 291.77 K) | refractive index ([2]; 292.66 K) | refractive index ([2]; 293.89 K) | refractive index ([2]; 285.51 K) | refractive index ([2]; 286.56 K) | refractive index ([2]; 287.57 K) | refractive index ([2]; 288.6 K) | refractive index ([2]; 289.75 K) | refractive index ([2]; 290.67 K) | refractive index ([2]; 291.68 K) | refractive index ([2]; 292.74 K) | refractive index ([2]; 293.98 K) |
| --- | --- | --- | --- | --- | --- | --- | --- | --- | --- | --- | --- | --- | --- | --- | --- | --- | --- | --- | --- | --- |
| CCCCCCCCCC [decane] + N#Cc1ccccc1 | 1.4128 ± 0.0003 |  |  |  |  |  |  |  |  |  |  |  |  |  |  |  |  |  |  |  |
| N#Cc1ccccc1 [benzonitrile] |  | 1.5293 ± 0.0003 | 1.5288 ± 0.0003 | 1.5283 ± 0.0003 | 1.5278 ± 0.0003 | 1.5277 ± 0.0003 | 1.5274 ± 0.0003 | 1.5268 ± 0.0003 | 1.5262 ± 0.0003 | 1.5258 ± 0.0003 | 1.5252 ± 0.0003 |  |  |  |  |  |  |  |  |  |
| CCCCCCCCCC [decane] |  |  |  |  |  | 1.4128 ± 0.0003 |  |  |  |  |  | 1.4142 ± 0.0003 | 1.4137 ± 0.0003 | 1.4133 ± 0.0003 | 1.4128 ± 0.0003 | 1.4123 ± 0.0003 | 1.4119 ± 0.0003 | 1.4114 ± 0.0003 | 1.411 ± 0.0003 | 1.4104 ± 0.0003 |
